Molecules are shown by their SMILES.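 Each compound was tested at five concentrations against cells in 96-well plates for 48 hours. Here, GI50 denotes the concentration required for 50% inhibition of growth. TGI is the concentration that stops growth completely.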

Test systems include BT-549 breast; NCI-H460 lung; SK-MEL-2 melanoma; OVCAR-8 ovarian; SR leukemia; HCC-2998 colon; OVCAR-5 ovarian; T-47D breast; MDA-MB-435; OVCAR-3 ovarian.
Assay in all cases: NCI anticancer screen, dose series, 48 h

Consider `COc1cc(C2CC(c3cccc(Nc4ccnc5cc(Cl)ccc45)c3)=NN2c2ccccc2)cc(OC)c1OC` (centres undefined), for which the GI50 in the assay with BT-549 breast is 13900 nM; with NCI-H460 lung, 3270 nM; with SK-MEL-2 melanoma it was 8780 nM; in the assay with OVCAR-8 ovarian, 7680 nM; in the assay with SR leukemia, 5490 nM; with HCC-2998 colon it was 5320 nM. For the same compound, the GI50 with OVCAR-5 ovarian is > 100000 nM; in the assay on T-47D breast it was 1440 nM; in the assay on MDA-MB-435, 1470 nM; in the assay with OVCAR-3 ovarian it was 8640 nM. For the same compound, the TGI in the assay on BT-549 breast is > 100000 nM; in the assay with NCI-H460 lung it was > 100000 nM; with SK-MEL-2 melanoma it was 75600 nM; in the assay with OVCAR-8 ovarian, > 100000 nM; with SR leukemia it was > 100000 nM; with HCC-2998 colon, 33800 nM. The TGI was > 100000 nM in the assay on OVCAR-5 ovarian, > 100000 nM in the assay with T-47D breast, 14200 nM with MDA-MB-435 and > 100000 nM with OVCAR-3 ovarian.
For `Fc1ccc(Nc2nc3nonc3nc2Nc2ccc(I)cc2)cc1`, the GI50 was 266 nM in the assay on BT-549 breast; 312 nM with NCI-H460 lung; 213 nM in the assay on SK-MEL-2 melanoma; 312 nM in the assay with OVCAR-8 ovarian; 252 nM with SR leukemia; 425 nM with HCC-2998 colon. In addition, the GI50 in the assay on OVCAR-5 ovarian is 373 nM; in the assay with T-47D breast, 228 nM; with MDA-MB-435, 276 nM; in the assay with OVCAR-3 ovarian it was 319 nM. For the same compound, the TGI with BT-549 breast is 2020 nM; in the assay on NCI-H460 lung, 12400 nM; with SK-MEL-2 melanoma, 617 nM; in the assay on OVCAR-8 ovarian it was 12800 nM; with SR leukemia it was 1910 nM; in the assay on HCC-2998 colon, 9240 nM. Also, the TGI in the assay with OVCAR-5 ovarian worked out at 20200 nM; in the assay with T-47D breast, 892 nM; in the assay on MDA-MB-435, 10800 nM; in the assay with OVCAR-3 ovarian it was 14100 nM.
Regarding `Cc1cc(-c2cc(OC(=O)c3ccccc3)ccc2Cl)cc2nnc(Nc3ccc(OCCN4CCCC4)cc3)nc12`, the GI50 in the assay on BT-549 breast is 2670 nM; with NCI-H460 lung it was 1720 nM; in the assay with SK-MEL-2 melanoma, 1780 nM; in the assay on OVCAR-8 ovarian, 1700 nM; with SR leukemia, 460 nM; in the assay with HCC-2998 colon, 1810 nM. Besides, the GI50 with OVCAR-5 ovarian is 1500 nM; in the assay with T-47D breast it was 1570 nM; with MDA-MB-435, 1620 nM; in the assay with OVCAR-3 ovarian, 1600 nM. Further, the TGI is 6680 nM in the assay on BT-549 breast; 3300 nM in the assay on NCI-H460 lung; 3450 nM in the assay on SK-MEL-2 melanoma; 3670 nM in the assay with OVCAR-8 ovarian; 2480 nM in the assay on SR leukemia; 3370 nM in the assay on HCC-2998 colon. Further, the TGI in the assay with OVCAR-5 ovarian amounted to 2840 nM; with T-47D breast, 3550 nM; in the assay with MDA-MB-435, 3020 nM; with OVCAR-3 ovarian it was 2970 nM.
With `COc1ncc(-c2ccc3nccc(C#CCCCCC(=O)NO)c3c2)cc1NS(=O)(=O)c1ccc(F)cc1F`, the GI50 with BT-549 breast was 53.5 nM; in the assay with NCI-H460 lung, 109 nM; in the assay with SK-MEL-2 melanoma it was 106 nM; in the assay with OVCAR-8 ovarian it was 131 nM; with SR leukemia, 146 nM; with HCC-2998 colon it was 75.8 nM. Also, the GI50 in the assay with OVCAR-5 ovarian is 63.4 nM; in the assay on MDA-MB-435, 132 nM; in the assay on OVCAR-3 ovarian, 65.1 nM. Besides, the TGI with BT-549 breast amounted to 2770 nM; with NCI-H460 lung, 11200 nM; in the assay on SK-MEL-2 melanoma it was 1770 nM; in the assay with OVCAR-8 ovarian, 4080 nM; in the assay on SR leukemia it was 4240 nM; in the assay on HCC-2998 colon it was 4260 nM. Further, the TGI stood at 8200 nM with OVCAR-5 ovarian, 55 nM with T-47D breast, 4830 nM with MDA-MB-435 and 2520 nM in the assay with OVCAR-3 ovarian.
